Results as given in US7265124B2, “Cristalline and amorphous form of a triazolo (4,5-D) pyridimine compound” (AstraZeneca AB, priority 2000, dated 2007).

How the values were obtained:
Conditions in all cases: qualitative statement, no test described
[1] = target: P2T (P2YADP or P2TAC) receptor (Homo sapiens, UniProt Q9H244); test: P2T receptor antagonism (potency stated in words only)
[2] = metabolic stability (stated in words only); type: in vitro ADME
[3] = bioavailability (stated in words only); type: in vivo

P2T (P2YADP or P2TAC) receptor, sequence (Q9H244 whole entry): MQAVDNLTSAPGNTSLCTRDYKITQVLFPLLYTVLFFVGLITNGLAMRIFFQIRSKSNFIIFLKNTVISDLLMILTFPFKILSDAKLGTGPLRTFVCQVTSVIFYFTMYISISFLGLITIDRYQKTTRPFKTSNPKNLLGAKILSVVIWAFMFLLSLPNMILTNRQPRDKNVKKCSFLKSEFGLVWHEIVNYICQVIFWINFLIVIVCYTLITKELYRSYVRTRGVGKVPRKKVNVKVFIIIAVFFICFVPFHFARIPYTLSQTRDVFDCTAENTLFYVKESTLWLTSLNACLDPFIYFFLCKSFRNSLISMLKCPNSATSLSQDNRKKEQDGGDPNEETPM

potency as a P2T (P2YADP or P2TAC) antagonist [1]: high potency
metabolic stability [2]: surprisingly high
bioavailability [3]: surprisingly high
Compound: CCCSc1nc(N[C@@H]2C[C@H]2c2ccc(F)c(F)c2)c2nnn([C@@H]3C[C@H](OCCO)[C@@H](O)[C@H]3O)c2n1 (relative stereo) [compound of formula (I), {1S-[1α, 2α, 3β(1S*,2R*),5β]}-3-(7-{[2-3,4-difluorophenyl)cyclopropyl]amino}-5-(propylthio)-3H-1,2,3-triazolo[4,5-d]pyrimidin-3-yl)-5-(2-hydroxyethoxy)cyclopentane-1,2-diol]
